Measurements published in patent publication US11360080B2, “AhR-ROR-γt complex as a biomarker and therapeutic target for autoimmune disease and IL-17A-associated disease” (NATIONAL HEALTH RESEARCH INSTITUTES, priority 2018, dated 2022).
Counter-ions that a name gives are not always drawn.

Experiments:
GLK−IQGAP1 complex = biological target: T1, GLK−IQGAP1 complex (Mus musculus, UniProt Q99JP0); assay: In situ PLA in lung tissues of mice of the LLC/luc metastatic lung cancer model; type: in vivo
T1 construct: from tissue; host or cells: mouse lung tissue (LLC/luc metastatic lung cancer model)
Description: (A) The molecular docking of GLK kinase domain structure with C1 (verteporfin). A three-dimensional structure model depicts the binding of C1 to the predicted GLK kinase domain containing phosphorylated Ser-170. The putative binding affinity was −7.4 kcal/mol. (B) The molecular docking of GLK kinase domain structure with C2 (alexidine dihydrochloride). A three-dimensional structure model depicts the binding of C2 to the predicted GLK kinase domain containing phosphorylated Ser-170. The putative binding affinity was −7.0 kcal/mol. (C) Co-immunoprecipitation (co-IP) of Flag-tagged GLK and GFP-fusion GLK using lysates of HEK293T cells co-transfected with Flag-GLK and GFP-GLK plasmids. Cells were treated with C1 (verteporfin) or C2 (alexidine dihydrochloride). (D) Administration of the GLK inhibitor C1 (0.556 nmole/g) or C2 (0.085 nmole/g) every 3 days for 30 days in the LLC/luc metastatic lung cancer mouse model. (E) The luciferase activity in mice treated with C1 (verteporfin), C2 (alexidine dihydrochloride), or vehicle was detected by IVIS Spectrum. (F) Luminescent intensity of photons emitted from LLC/luc cells in the images in (e) was quantified. (G) Representative immunohistochemistry of H&E in lung tissues from mice treated with C1 (verteporfin), C2, or vehicle. Scale bar, 0.5 cm. (H) In situ PLA assays of the interaction between GLK and IQGAP1 (upper panel) or phosphorylated IQGAP1 Ser-480 (lower panel) in lung tissues from mice treated with C1 (verteporfin), C2 (alexidine dihydrochloride), or vehicle in the LLC/luc metastatic lung cancer mouse model. Original magnification, ×40.
For experiments using human pulmonary tissues, tissue sections were deparafinized, antigen retrieved, and nonspecific-binding blocked, followed by in situ PLA assays using primary antibodies for IQGAP1 (1:4,000, CUSABIO) plus either GLK (1:3,000, mAb clone C3) or phospho-IQGAP1 Ser-480 (1:2,000, Allbio Science). The monoclonal antibody for phosphorylated IQGAP1 Ser-480 was generated by immunization of a mouse with phospho-peptides (human IQGAP1 epitope: ^473NTVWKQL[pS] SSVTGLT^487; SEQ ID NO: 32). The tissue sections were then incubated with species-specific secondary antibodies conjugated with oligonucleotides ([…]), followed by ligation and amplification reactions. The number of PLA signals for GLK−IQGAP1 complex or phosphorylated IQGAP1 per tissue (3.14 mm^2) was counted.

GLK−IQGAP1 interaction = biological target: T2, GLK−IQGAP1 interaction (Homo sapiens, UniProt Q8IVH8); assay: FRET assay of HEK293T cells with CFP- and YFP-fused GLK and IQGAP1; type: cell-based
T2 construct: expressed in transfected cells; host or cells: HEK293T
Experimental: (A) Silver-stained gel of anti-Flag immunoprecipitates from HEK293T cells transfected with empty vector or Flag-tagged GLK in the presence or absence of the tyrosine phosphatase inhibitor pervanadate (25 μM). Arrows indicate the positions of GLK or GLK-interacting proteins. (B) Four pervanadate-induced tyrosine phosphorylation residues of GLK proteins were listed. (C and D) Co-immunoprecipitation of anti-Flag (C) or anti-Myc (D) immunocomplexes from lysates of HEK293T cells transfected with Flag-tagged GLK, Myc-tagged IQGAP1, or both plasmids. The whole-cell lysate immunoblots before immunoprecipitation (Pre-IP) are shown at the bottom of each panel. β-Tubulin was used as the loading control. (E) Co-immunoprecipitation of anti-Flag immunocomplexes from lysates of HEK293T cells transfected with either Flag-tagged GLK or Flag-tagged GLK mutant (Y366F, Y379F, Y574F, or Y735F). […]
FRET signal in live cells was detected by EnVision 2104 Multilabel Plate Reader (Perkin Elmer). The reaction was excited by light passing through a 430-nm filter (with 8 nm bandwidth), and the intensity of emitted fluorescence passing through a 530-nm filter (with 8 nm bandwidth) was recorded. If the protein-protein pair is in close proximity (1-10 nm), a 530-nm signal will be detected. […]

T1 sequence (Q99JP0 whole entry, one chain of several): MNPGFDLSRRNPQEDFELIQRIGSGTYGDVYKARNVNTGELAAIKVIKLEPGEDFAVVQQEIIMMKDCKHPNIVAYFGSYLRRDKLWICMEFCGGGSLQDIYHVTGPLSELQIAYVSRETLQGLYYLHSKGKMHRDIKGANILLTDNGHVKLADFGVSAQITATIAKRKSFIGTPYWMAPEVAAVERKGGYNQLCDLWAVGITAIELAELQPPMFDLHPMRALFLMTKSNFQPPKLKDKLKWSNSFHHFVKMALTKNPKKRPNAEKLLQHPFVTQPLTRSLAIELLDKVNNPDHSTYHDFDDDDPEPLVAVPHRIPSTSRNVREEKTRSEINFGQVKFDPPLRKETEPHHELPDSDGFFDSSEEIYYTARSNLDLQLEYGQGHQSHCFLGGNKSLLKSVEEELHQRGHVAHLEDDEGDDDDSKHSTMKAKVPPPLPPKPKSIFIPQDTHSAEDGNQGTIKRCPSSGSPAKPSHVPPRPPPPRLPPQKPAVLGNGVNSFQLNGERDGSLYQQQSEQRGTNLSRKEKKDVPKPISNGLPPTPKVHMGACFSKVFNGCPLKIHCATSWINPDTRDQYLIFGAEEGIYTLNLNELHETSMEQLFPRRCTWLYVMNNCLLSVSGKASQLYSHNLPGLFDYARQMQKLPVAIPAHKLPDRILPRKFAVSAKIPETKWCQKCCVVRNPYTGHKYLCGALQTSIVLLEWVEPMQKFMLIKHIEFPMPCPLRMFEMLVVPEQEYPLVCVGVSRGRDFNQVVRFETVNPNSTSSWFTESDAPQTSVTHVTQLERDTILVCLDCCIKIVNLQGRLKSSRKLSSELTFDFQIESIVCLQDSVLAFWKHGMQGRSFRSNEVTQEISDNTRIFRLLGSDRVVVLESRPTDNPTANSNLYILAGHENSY
T2 sequence (Q8IVH8 whole entry, the tested form may be a part): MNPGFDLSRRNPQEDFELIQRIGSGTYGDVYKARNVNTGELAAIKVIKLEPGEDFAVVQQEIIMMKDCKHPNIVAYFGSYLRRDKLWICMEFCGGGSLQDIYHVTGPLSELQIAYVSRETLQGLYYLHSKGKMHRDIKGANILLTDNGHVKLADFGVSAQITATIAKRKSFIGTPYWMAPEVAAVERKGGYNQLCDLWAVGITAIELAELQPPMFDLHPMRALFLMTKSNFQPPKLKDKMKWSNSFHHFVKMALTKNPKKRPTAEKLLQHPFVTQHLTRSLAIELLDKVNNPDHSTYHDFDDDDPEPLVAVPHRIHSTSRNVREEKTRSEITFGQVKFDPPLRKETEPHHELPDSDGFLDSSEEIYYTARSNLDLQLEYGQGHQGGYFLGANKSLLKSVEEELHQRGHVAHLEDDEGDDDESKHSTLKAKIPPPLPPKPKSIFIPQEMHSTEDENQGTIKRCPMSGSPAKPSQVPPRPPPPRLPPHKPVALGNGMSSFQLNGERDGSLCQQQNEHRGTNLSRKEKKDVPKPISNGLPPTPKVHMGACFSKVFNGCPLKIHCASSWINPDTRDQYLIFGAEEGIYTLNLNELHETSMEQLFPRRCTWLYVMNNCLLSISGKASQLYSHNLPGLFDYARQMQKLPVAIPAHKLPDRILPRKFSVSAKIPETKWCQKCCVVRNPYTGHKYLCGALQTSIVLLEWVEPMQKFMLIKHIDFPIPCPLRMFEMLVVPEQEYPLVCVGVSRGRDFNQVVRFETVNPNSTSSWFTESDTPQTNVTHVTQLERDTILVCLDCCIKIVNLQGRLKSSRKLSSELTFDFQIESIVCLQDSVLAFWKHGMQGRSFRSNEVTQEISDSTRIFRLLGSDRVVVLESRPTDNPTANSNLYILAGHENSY

C=Cc1c(C)c2cc3nc(cc4[nH]c(cc5nc(cc1[nH]2)C(C)=C5CCC(=O)O)c(CCC(=O)OC)c4C)[C@@]1(C)C3=CC=C(C(=O)OC)[C@H]1C(=O)OC [C1, verteporfin]
inhibited: IQGAP1 (Ser-480) phosphorylation in the lung tissues (GLK−IQGAP1 complex) | interaction between GLK and IQGAP1 in the lung tissues (GLK−IQGAP1 complex) | FRET signals of GLK−IQGAP1 interaction (GLK−IQGAP1 interaction)

CCCCC(CC)CNC(=N)NC(=N)NCCCCCCNC(=N)NC(=N)NCC(CC)CCCC (stereo not drawn) [C2, alexidine dihydrochloride]
inhibited: IQGAP1 (Ser-480) phosphorylation in the lung tissues (GLK−IQGAP1 complex) | interaction between GLK and IQGAP1 in the lung tissues (GLK−IQGAP1 complex) | FRET signals of GLK−IQGAP1 interaction (GLK−IQGAP1 interaction)
